According to ChEMBL document CHEMBL1201862, “PubChem BioAssay data set” (2004):
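A five-concentration, 48-hour dose response in 96-well plates underlies each endpoint, interpolated linearly between surrounding concentrations. GI50: concentration for 50% inhibition of growth.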 Active and inactive are the calls of the source. No stated cut-off is given here; in the data, active = GI50 up to about 1.1 µM and inactive = higher.

Assays:
Assay in all cases: NCI-60 cell line screen, 48 h
[1] = system: SNB-19
[2] = system: A498
[3] = system: SN12C
[4] = system: Malme-3M
[5] = system: HCT-15
[6] = system: DU-145
[7] = system: SR
[8] = system: OVCAR-4
[9] = system: SNB-75
[10] = system: UACC-62
[11] = system: SF-295
[12] = system: SF-268
[13] = system: TK-10
[14] = system: SK-OV-3
[15] = system: CAKI-1
[16] = system: HCT-116
[17] = system: SF-539
[18] = system: U-251
[19] = system: HOP-92
[20] = system: NCI-H522

In the case of O=[As](O)(O)c1ccc(Cc2ccc([As](=O)(O)O)cc2)cc1, the GI50 [1] is reported as 1.15 µM (inactive), the GI50 [2] is reported as 2.12 µM (inactive) and the GI50 [3] is reported as 0.64 µM (active). For the same compound, the GI50 [4] was 1.2 µM (inactive), the GI50 [5] was 1.17 µM and the GI50 [6] was 0.336 µM (active). For the same compound, the GI50 [7] was 0.269 µM (active), the GI50 [8] was 1.9 µM (inactive) and the GI50 [9] was 1.34 µM (inactive). For the same compound, the GI50 [10] was 1.28 µM (inactive), the GI50 [11] was 2.78 µM (inactive) and the GI50 [12] was 0.434 µM (active). The GI50 [13] was 0.547 µM (active), the GI50 [14] was 2.15 µM (inactive) and the GI50 [15] was 0.955 µM (active). For the same compound, the GI50 [16] was 0.895 µM (active), the GI50 [17] was 0.193 µM (active) and the GI50 [18] was 0.371 µM (active). For the same compound, the GI50 [19] was 1.5 µM (inactive) and the GI50 [20] was 0.419 µM (active).
With N=C(N)Nc1ccc(-c2ccc(NC(=N)N)cc2)cc1 the GI50 [1] was 41.4 µM (inactive), the GI50 [2] was 6.95 µM (inactive) and the GI50 [3] was 12.4 µM (inactive). For the same compound, the GI50 [4] was 19 µM (inactive), the GI50 [5] was 49.5 µM and the GI50 [6] was 25.9 µM (inactive). For the same compound, the GI50 [7] was 14.6 µM (inactive), the GI50 [8] was 60.7 µM (inactive) and the GI50 [9] was 9.12 µM (inactive). The GI50 [10] was 40.1 µM (inactive), the GI50 [11] was 17.8 µM (inactive) and the GI50 [12] was 37.3 µM (inactive). The GI50 [13] was 14.3 µM (inactive), the GI50 [14] was > 55.8 µM (inactive) and the GI50 [15] was 41.1 µM (inactive). For the same compound, the GI50 [16] was 28.8 µM (inactive), the GI50 [17] was 20.9 µM (inactive) and the GI50 [18] was 23.6 µM (inactive). The GI50 [19] was 45 µM (inactive) and the GI50 [20] was 32.2 µM (inactive).
With CC1CC(C)C2=NOS3=C2C1=NO3 (stereo not given) the GI50 [1] was > 100 µM (inactive), the GI50 [2] was 12.9 µM (inactive) and the GI50 [3] was > 100 µM (inactive). The GI50 [4] was 89.7 µM (inactive), the GI50 [5] was over 100 µM and the GI50 [6] was > 100 µM (inactive). The GI50 [7] was > 100 µM (inactive), the GI50 [8] was > 100 µM (inactive) and the GI50 [9] was 59.8 µM (inactive). The GI50 [10] was 79.8 µM (inactive), the GI50 [11] was > 100 µM (inactive) and the GI50 [12] was > 100 µM (inactive). For the same compound, the GI50 [13] was > 100 µM (inactive), the GI50 [14] was > 100 µM (inactive) and the GI50 [15] was > 100 µM (inactive). For the same compound, the GI50 [16] was > 100 µM (inactive), the GI50 [17] was > 100 µM (inactive) and the GI50 [18] was > 100 µM (inactive). The GI50 [19] was > 100 µM (inactive) and the GI50 [20] was > 100 µM (inactive).
In the case of COc1ccc(NC(=O)CC(=O)NNC(Sc2ccccc2)c2cc(/N=N/c3ccc(Br)cc3)ccc2O)cc1 (stereo not given), the GI50 [1] is reported as > 10 µM (inactive), the GI50 [2] is reported as > 10 µM (inactive) and the GI50 [3] is reported as 7.52 µM (inactive). For the same compound, the GI50 [4] was > 10 µM (inactive), the GI50 [5] was over 10 µM and the GI50 [6] was > 10 µM (inactive). For the same compound, the GI50 [7] was 8.89 µM (inactive), the GI50 [8] was 9.12 µM (inactive) and the GI50 [9] was 5.52 µM (inactive). The GI50 [10] was > 10 µM (inactive), the GI50 [11] was > 10 µM (inactive) and the GI50 [12] was > 10 µM (inactive). The GI50 [13] was > 10 µM (inactive), the GI50 [14] was > 10 µM (inactive) and the GI50 [15] was > 10 µM (inactive). For the same compound, the GI50 [16] was 4.81 µM (inactive), the GI50 [17] was > 10 µM (inactive) and the GI50 [18] was > 10 µM (inactive). The GI50 [19] was > 10 µM (inactive) and the GI50 [20] was > 10 µM (inactive).
COC1CC(C)([N+](=O)[O-])C(O)C(C)O1 (stereo not given) was tested, and the GI50 [1] was > 100 µM (inactive), the GI50 [2] was > 100 µM (inactive) and the GI50 [3] was > 100 µM (inactive). For the same compound, the GI50 [4] was > 100 µM (inactive), the GI50 [5] was over 100 µM and the GI50 [6] was > 100 µM (inactive). For the same compound, the GI50 [7] was > 100 µM (inactive), the GI50 [8] was > 100 µM (inactive) and the GI50 [9] was > 100 µM (inactive). For the same compound, the GI50 [10] was > 100 µM (inactive), the GI50 [11] was > 100 µM (inactive) and the GI50 [12] was > 100 µM (inactive). The GI50 [13] was > 100 µM (inactive), the GI50 [14] was > 100 µM (inactive) and the GI50 [15] was > 100 µM (inactive). The GI50 [16] was > 100 µM (inactive), the GI50 [17] was > 100 µM (inactive) and the GI50 [18] was > 100 µM (inactive). For the same compound, the GI50 [19] was > 100 µM (inactive) and the GI50 [20] was > 100 µM (inactive).
With CCOC(=O)c1cccc(NC(=O)CCl)c1 the GI50 [1] was 28.6 µM (inactive), the GI50 [2] was 15.2 µM (inactive) and the GI50 [3] was 2.01 µM (inactive). The GI50 [4] was 6.22 µM (inactive), the GI50 [5] was 2.75 µM and the GI50 [6] was 9.44 µM (inactive). The GI50 [7] was 1.77 µM (inactive), the GI50 [8] was 2.37 µM (inactive) and the GI50 [9] was 2.77 µM (inactive). The GI50 [10] was 1.52 µM (inactive), the GI50 [11] was 12.3 µM (inactive) and the GI50 [12] was 2.11 µM (inactive). For the same compound, the GI50 [13] was 6.03 µM (inactive), the GI50 [14] was 4.92 µM (inactive) and the GI50 [15] was 1.88 µM (inactive). The GI50 [16] was 2.8 µM (inactive), the GI50 [17] was 2.34 µM (inactive) and the GI50 [18] was 1.4 µM (inactive). The GI50 [19] was 7.45 µM (inactive) and the GI50 [20] was 1.68 µM (inactive).
For COc1cc(-c2[nH]ccc2Cl)oc1C1=C2N=C3C=C2C(C(C)C)C1CCCCCCCC3 (stereo not given), the GI50 [1] was 1.69 µM (inactive), the GI50 [2] was 2.16 µM (inactive) and the GI50 [3] was 0.94 µM (active). The GI50 [4] was 1.09 µM (active), the GI50 [5] was 0.678 µM and the GI50 [6] was 0.614 µM (active). The GI50 [7] was 0.292 µM (active), the GI50 [8] was 0.863 µM (active) and the GI50 [9] was 1.12 µM (inactive). For the same compound, the GI50 [10] was 0.794 µM (active), the GI50 [11] was 1.15 µM (inactive) and the GI50 [12] was 1.08 µM (active). For the same compound, the GI50 [13] was 2.05 µM (inactive), the GI50 [14] was 1.6 µM (inactive) and the GI50 [15] was 2 µM (inactive). For the same compound, the GI50 [16] was 0.307 µM (active), the GI50 [17] was 0.869 µM (active) and the GI50 [18] was 0.711 µM (active). The GI50 [19] was 1.69 µM (inactive) and the GI50 [20] was 0.407 µM (active).
